Experimental data reported in patent publication EP1860442A2, “Neurosteroids as markers for Alzheimer's disease” (Georgetown University, priority 2000, dated 2001).

What was measured:
[1] = system: MGM-1 cells; assay: β-Amyloid regulation of the alternative pathway: ROS (2,7-DCF fluorescence); assay type: cell-based, human; conditions: 50 mM Aβ versus control, p < 0.01
Protocol: β-Amyloid Regulation of the Alternative Pathway: MGM-1 cells were plated on 96 well (~5,000 cells/well, for ROS measurements) or 24 well (~15,000 cells/well, for D measurements) plates (Coming Costar, Acton, MA). At the same time, 1mg Ab (Ab (1-42), AnaSpec Inc., San Jose, CA) was dissolved in 0.5 ml serum-free media and incubated at 4C for aggregation. 24 hours later, cells were incubated in DMEM with 10% fetal bovine serum and […] or […] and 10 mM Vitamin E (Sigma, St. Louis, MO). Control samples were incubated in DMEM with 10% FBS. Cells were incubated at 37C and 6% CO2 for at least 12 hours and processed for ROS generation (see below) or D synthesis as described above for the alternative experiments.
Treatment media was removed and the cells were washed with PBS. The fluorescent probe 2,7- dichlorofluorescin diacetate (2,7-DCF, Molecular Probes, Inc., Eugene, OR) was used to measure levels of oxidative stress (48). Cells were incubated with […] 2,7-DCF, fluorescence was measured at 485nm/535nm using the Victor^2 Multilabel Counter (EG&G Wallac, Gaithersburg, MD) and values of cellular fluorescence were obtained.

[2] = system: MGM-1 cells; assay: β-Amyloid regulation of the alternative pathway: D synthesis; assay type: cell-based, human; conditions: 50 mM Aβ versus control, p < 0.01
Protocol: Alternative Pathway: To determine the amount ofD synthesized by the alternative pathway cells were treated as previously described (15). In brief, cells were washed and oligodendrocytes and astrocytes were incubated with increasing concentrations of FeSO4 in serum free media, with and without SU 10603 (10 mM); neurons were incubated in serum free media containing 5 mM P plus FeSO4, with and without 10 mM SU 10603. After two hours, cells and media were homogenized and extracted as described above. Extracts were run on C18 TLC plates (Whatman, Clifton, NJ) with a mobile phase of 95% methanol (v/v); radiolabeled standards for P, progesterone, and D were run on each plate, and appropriate steroid fractions were collected for each sample. TLC fractions were extracted with 2 ml diethyl ether (Fluka, New York) and evaporated. TLC extracts were assayed by specific radioimmunoassay (RIA). […]
RIA using antibodies specific for each steroid (ICN Pharmaceuticals, Costa Mesa, CA Mesa) was used to measure P, progesterone and D levels. The data were analyzed using the IBM-PC RIA Data Reduction Program (version 4.1) from Jaffe and Associates (Silver Spring, MD). Levels of β-amyloid species in AD and control brain samples were analyzed using 4G8 (Senetex PLC, Napa, CA), a monoclonal antibody to β-amyloid peptide that recognizes amino acids 17-24. […]

For “Aβ: β-amyloid peptide Ab (1-42), AnaSpec Inc., aggregated; a component of Alzheimer's disease plaques”, the “2,7-DCF fluorescence (ROS)” value [1] was “significant increase” and the D levels [2] was “increased D levels significantly over control”.
